Like-named read-outs stand apart in the source and are kept apart here.
Tested on: Wheat and Barley and weed species
Test: Post-Emergent Test III: postemergent herbicidal activity in wheat and barley, visual rating after 21 d and probit GR20/GR50/GR80/GR90 (Tables 9-13)
Assay type: in vivo
Settings: for pest or weed control at 17.5 g/ha / pest or weed control at 35 g/ha / pest or weed control at 70 g/ha: post-emergence, 504 h
Summary of the method: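 Greenhouse plants (~18/17 °C, 14 h photoperiod) at second–third true leaf stage sprayed at 187 L/ha with a high rate and ½× to 1/16× serial dilutions. Visual injury 0–100% versus solvent-blank controls scored at 21 d; GR20, GR50, GR80 and GR90 derived by probit analysis across rates.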

Nc1c(F)c(-c2ccc(Cl)c3c2OC(F)(F)O3)nc(C(=O)O)c1Cl [Compound 82]
Visual Growth Reduction (%) 21 Days After Application CIRAR (CIRAR Canada thistle (Cirsium arvense), 17.5 g ai/ha): B (85-94)
Visual Growth Reduction (%) 21 Days After Application CIRAR (CIRAR Canada thistle (Cirsium arvense), 35 g ai/ha): B (85-94)
Visual Growth Reduction (%) 21 Days After Application CIRAR (CIRAR Canada thistle (Cirsium arvense), 70 g ai/ha): B (85-94)
GR50 CIRAR (CIRAR Canada thistle (Cirsium arvense), growth reduction of 50%, probit analysis): 1 g ai/ha
GR80 CIRAR (CIRAR Canada thistle (Cirsium arvense), growth reduction of 80%, probit analysis): 10 g ai/ha
GR90 CIRAR (CIRAR Canada thistle (Cirsium arvense), growth reduction of 90%, probit analysis): 34 g ai/ha
Visual Growth Reduction (%) 21 Days After Application GALAP (GALAP cleavers (Galium aparine), 17.5 g ai/ha): D (60-74)
Visual Growth Reduction (%) 21 Days After Application GALAP (GALAP cleavers (Galium aparine), 35 g ai/ha): B (85-94)
Visual Growth Reduction (%) 21 Days After Application GALAP (GALAP cleavers (Galium aparine), 70 g ai/ha): B (85-94)
GR50 GALAP (GALAP cleavers (Galium aparine), growth reduction of 50%, probit analysis): 10 g ai/ha
GR80 GALAP (GALAP cleavers (Galium aparine), growth reduction of 80%, probit analysis): 33 g ai/ha
GR90 GALAP (GALAP cleavers (Galium aparine), growth reduction of 90%, probit analysis): 64 g ai/ha
GR20 HORVS (HORVS barley, spring (crop), growth reduction of 20%, probit analysis): 7 g ai/ha
pest or weed control at 17.5 g/ha (Hordeum vulgare, HORVS barley, spring (crop), 17.5 g ai/ha, read-out: Visual Growth Reduction (%) 21 Days After Application HORVS): 30 to 44%
pest or weed control at 35 g/ha (Hordeum vulgare, HORVS barley, spring (crop), 35 g ai/ha, read-out: Visual Growth Reduction (%) 21 Days After Application HORVS): 60 to 74%
pest or weed control at 70 g/ha (Hordeum vulgare, HORVS barley, spring (crop), 70 g ai/ha, read-out: Visual Growth Reduction (%) 21 Days After Application HORVS): 75 to 84%
Visual Growth Reduction (%) 21 Days After Application KCHSC (KCHSC kochia (Kochia scoparia), 17.5 g ai/ha): D (60-74)
Visual Growth Reduction (%) 21 Days After Application KCHSC (KCHSC kochia (Kochia scoparia), 35 g ai/ha): C (75-84)
Visual Growth Reduction (%) 21 Days After Application KCHSC (KCHSC kochia (Kochia scoparia), 70 g ai/ha): C (75-84)
GR50 KCHSC (KCHSC kochia (Kochia scoparia), growth reduction of 50%, probit analysis): 2 g ai/ha
GR80 KCHSC (KCHSC kochia (Kochia scoparia), growth reduction of 80%, probit analysis): 83 g ai/ha
GR90 KCHSC (KCHSC kochia (Kochia scoparia), growth reduction of 90%, probit analysis): >140 g ai/ha
Visual Growth Reduction (%) 21 Days After Application LAMPU (LAMPU purple deadnettle (Lamium purpureum), 17.5 g ai/ha): G (0-29)
Visual Growth Reduction (%) 21 Days After Application LAMPU (LAMPU purple deadnettle (Lamium purpureum), 35 g ai/ha): G (0-29)
Visual Growth Reduction (%) 21 Days After Application LAMPU (LAMPU purple deadnettle (Lamium purpureum), 70 g ai/ha): F (30-44)
GR50 LAMPU (LAMPU purple deadnettle (Lamium purpureum), growth reduction of 50%, probit analysis): 89 g ai/ha
GR80 LAMPU (LAMPU purple deadnettle (Lamium purpureum), growth reduction of 80%, probit analysis): 131 g ai/ha
GR90 LAMPU (LAMPU purple deadnettle (Lamium purpureum), growth reduction of 90%, probit analysis): >140 g ai/ha
Visual Growth Reduction (%) 21 Days After Application MATCH (MATCH wild chamomile (Matricaria recutita L.), 17.5 g ai/ha): C (75-84)
Visual Growth Reduction (%) 21 Days After Application MATCH (MATCH wild chamomile (Matricaria recutita L.), 35 g ai/ha): C (75-84)
Visual Growth Reduction (%) 21 Days After Application MATCH (MATCH wild chamomile (Matricaria recutita L.), 70 g ai/ha): B (85-94)
GR50 MATCH (MATCH wild chamomile (Matricaria recutita L.), growth reduction of 50%, probit analysis): 18 g ai/ha
GR80 MATCH (MATCH wild chamomile (Matricaria recutita L.), growth reduction of 80%, probit analysis): 35 g ai/ha
GR90 MATCH (MATCH wild chamomile (Matricaria recutita L.), growth reduction of 90%, probit analysis): 49 g ai/ha
Visual Growth Reduction (%) 21 Days After Application PAPRH (PAPRH common poppy (Papaver rhoeas), 17.5 g ai/ha): G (0-29)
Visual Growth Reduction (%) 21 Days After Application PAPRH (PAPRH common poppy (Papaver rhoeas), 35 g ai/ha): G (0-29)
Visual Growth Reduction (%) 21 Days After Application PAPRH (PAPRH common poppy (Papaver rhoeas), 70 g ai/ha): F (30-44)
GR50 PAPRH (PAPRH common poppy (Papaver rhoeas), growth reduction of 50%, probit analysis): 113 g ai/ha
GR80 PAPRH (PAPRH common poppy (Papaver rhoeas), growth reduction of 80%, probit analysis): >140 g ai/ha
GR90 PAPRH (PAPRH common poppy (Papaver rhoeas), growth reduction of 90%, probit analysis): >140 g ai/ha
Visual Growth Reduction (%) 21 Days After Application SASKR (SASKR Russian thistle (Salsola iberica), 17.5 g ai/ha): B (85-94)
Visual Growth Reduction (%) 21 Days After Application SASKR (SASKR Russian thistle (Salsola iberica), 35 g ai/ha): B (85-94)
Visual Growth Reduction (%) 21 Days After Application SASKR (SASKR Russian thistle (Salsola iberica), 70 g ai/ha): B (85-94)
GR50 SASKR (SASKR Russian thistle (Salsola iberica), growth reduction of 50%, probit analysis): 1 g ai/ha
GR80 SASKR (SASKR Russian thistle (Salsola iberica), growth reduction of 80%, probit analysis): 10 g ai/ha
GR90 SASKR (SASKR Russian thistle (Salsola iberica), growth reduction of 90%, probit analysis): 32 g ai/ha
Visual Growth Reduction (%) 21 Days After Application SINAR (SINAR wild mustard (Sinapis arvensis), 17.5 g ai/ha): A (95-100)
Visual Growth Reduction (%) 21 Days After Application SINAR (SINAR wild mustard (Sinapis arvensis), 35 g ai/ha): A (95-100)
Visual Growth Reduction (%) 21 Days After Application SINAR (SINAR wild mustard (Sinapis arvensis), 70 g ai/ha): A (95-100)
GR50 SINAR (SINAR wild mustard (Sinapis arvensis), growth reduction of 50%, probit analysis): 0.02 g ai/ha
GR80 SINAR (SINAR wild mustard (Sinapis arvensis), growth reduction of 80%, probit analysis): 0.5 g ai/ha
GR90 SINAR (SINAR wild mustard (Sinapis arvensis), growth reduction of 90%, probit analysis): 2 g ai/ha
GR20 TRZAS (TRZAS wheat, spring (crop), growth reduction of 20%, probit analysis): 4 g ai/ha
pest or weed control at 17.5 g/ha (Triticum aestivum, TRZAS wheat, spring (crop), 17.5 g ai/ha, read-out: Visual Growth Reduction (%) 21 Days After Application TRZAS): 60 to 74%
pest or weed control at 35 g/ha (Triticum aestivum, TRZAS wheat, spring (crop), 35 g ai/ha, read-out: Visual Growth Reduction (%) 21 Days After Application TRZAS): 60 to 74%
pest or weed control at 70 g/ha (Triticum aestivum, TRZAS wheat, spring (crop), 70 g ai/ha, read-out: Visual Growth Reduction (%) 21 Days After Application TRZAS): 75 to 84%
Visual Growth Reduction (%) 21 Days After Application VERPE (VERPE bird's-eye speedwell (veronica persica), 17.5 g ai/ha): G (0-29)
Visual Growth Reduction (%) 21 Days After Application VERPE (VERPE bird's-eye speedwell (veronica persica), 35 g ai/ha): G (0-29)
Visual Growth Reduction (%) 21 Days After Application VERPE (VERPE bird's-eye speedwell (veronica persica), 70 g ai/ha): G (0-29)
GR50 VERPE (VERPE bird's-eye speedwell (veronica persica), growth reduction of 50%, probit analysis): >140 g ai/ha
GR80 VERPE (VERPE bird's-eye speedwell (veronica persica), growth reduction of 80%, probit analysis): >140 g ai/ha
GR90 VERPE (VERPE bird's-eye speedwell (veronica persica), growth reduction of 90%, probit analysis): >140 g ai/ha
Visual Growth Reduction (%) 21 Days After Application VIOTR (VIOTR wild pansy (Viola tricolor), 17.5 g ai/ha): E (45-59)
Visual Growth Reduction (%) 21 Days After Application VIOTR (VIOTR wild pansy (Viola tricolor), 35 g ai/ha): D (60-74)
Visual Growth Reduction (%) 21 Days After Application VIOTR (VIOTR wild pansy (Viola tricolor), 70 g ai/ha): D (60-74)
GR50 VIOTR (VIOTR wild pansy (Viola tricolor), growth reduction of 50%, probit analysis): 31 g ai/ha
GR80 VIOTR (VIOTR wild pansy (Viola tricolor), growth reduction of 80%, probit analysis): 62 g ai/ha
GR90 VIOTR (VIOTR wild pansy (Viola tricolor), growth reduction of 90%, probit analysis): 90 g ai/ha
